According to patent US9475795B2 (TAKEDA PHARMACEUTICAL COMPANY LIMITED, priority 2012, dated 2016):

Target: human PKR1 receptors (Homo sapiens (Human), UniProt Q8TCW9)
Test: PKR1 antagonist assay: block of PK1-mediated intracellular calcium release (FLIPR)
Type: cell-based
Conditions: RBL2H3 cells expressing human PKR1; 10 min preincubation; stimulation with PK1 at EC80; calcium fluorescence
Procedure: Prokineticin receptor 1 (PKR1) antagonists may be functionally assessed by measurement of change in intracellular calcium levels induced by Gq mediated increase in inositol triphosphate (IP3) levels. The ability of a compound to block the intracellular release of calcium mediated by PK1 in RBL2H3 cells expressing human PKR1 receptors is determined as a measure of the compound's antagonist activity in vitro.
Approximately 10,000 cells per assay well are seeded in normal culture medium in a 384 well plate (Corning). […]
To test for antagonist activity, test compounds at a final concentration range between 0.32 nM-10 μM (diluted in assay buffer) are added to the assay wells and allowed to incubate for 10 minutes prior to stimulation with PK1. After incubation with test compounds the assay plate is placed in a FLIPR Tetra (Molecular Devices) and PK1 (diluted in assay buffer) is added at the determined EC80 concentration (final). Ligand-dependent changes in intracellular calcium levels are determined by measuring changes in fluorescence of the dye at […] following excitation at 485 nm.

Sequence of human PKR1 receptors (Q8TCW9 whole entry): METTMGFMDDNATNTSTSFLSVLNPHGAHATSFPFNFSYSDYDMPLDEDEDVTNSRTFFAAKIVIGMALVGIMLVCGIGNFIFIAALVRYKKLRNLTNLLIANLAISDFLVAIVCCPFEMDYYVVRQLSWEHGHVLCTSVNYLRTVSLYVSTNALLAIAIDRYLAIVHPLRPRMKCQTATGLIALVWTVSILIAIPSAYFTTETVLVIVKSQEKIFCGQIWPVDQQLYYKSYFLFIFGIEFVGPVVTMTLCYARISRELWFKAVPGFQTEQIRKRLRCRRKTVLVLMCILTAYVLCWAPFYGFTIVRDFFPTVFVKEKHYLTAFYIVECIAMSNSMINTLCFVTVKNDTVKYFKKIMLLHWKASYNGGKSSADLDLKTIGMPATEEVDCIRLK

IC50: 900 nM
SMILES: Cc1nn(C)c(C)c1S(=O)(=O)N1CCC(N(C)c2ccc(Cl)cc2)CC1 [Example 53]
